Experimental findings from patent US9072778B2, “Treatment regimen for N-MYC, c-MYC, and L-MYC amplified and overexpressed tumors” (UNIVERSITY OF HAWAII, priority 2005, dated 2015) are described below.

The subject of one assay is MYCN. The experiment in a line: Western blot of MYCN in inhibitor-treated NB cells. The class given is cell-based, human. The note with it: LAN-1 and NMB-7; 5 mM DFMO, 10 μM SAM486A (FIG. 7c). From the text: It has also been shown that MYCN can regulate p27^Kip1 in NB cells by targeting p27^Kip1 to the proteasome (Nakamura et al., (2003) Cell Death Differ, 10, 230-9, which is incorporated herein by reference in its entirety), and it is therefore possible that the observed increase in p27^Kip1 is in response to a decrease in MYCN. […] The regulation of ODC by MYCN has been previously proposed (Ben-Yosef et al., (1998) Oncogene, 17, 165-71; Lu et al., (2003) Cancer Lett, 197, 125-30; Lutz et al., (1996) Oncogene, 13, 803-12, each of which is incorporated herein by reference in its entirety), but has not been definitively confirmed. The precise mechanism by which polyamines regulate MYCN in NB cells remains to be further clarified.
To further investigate the mechanism that regulates G1 arrest in LAN-1 and NMB-7 cells, and to define the changes in associated protein responses, the cell cycle-related proteins p21^Waf1/Cip1, p27^Kip1, p53, Rb, and MYCN in NB cell lysates were studied. Cells were analyzed on days 1, 2, and 3. Equal amounts of total protein were loaded in all experiments. Proteins were scanned and the ratio of hypophosphorylated Rb (pRb) (lower band):hyperphosphorylated Rb (ppRb) (upper band) was calculated (b). MYCN bands were quantified and normalized relative to β-actin. Values are presented as percentage (%) of controls of day 1, 2 or 3. (c). […]
A general note: Immunoblotting shows a protein as a band on a membrane.

The next assay relates to NMB-7 cells. The experiment in a line: Cell cycle phase distribution (propidium iodide), NMB-7. The class given is cell-based, human. The note with it: DFMO = 5 mM, SAM486A = 10 μM, Spd = 10 μM, mean ± SD. The text has this:
This profile, which is typical for cell cycle arrest at G1, was enhanced by the combination of both inhibitors, with the majority of cells in G1 (˜71-73%), a reduced number of cells in S phase (˜20-28%), and a small portion in G2/M (˜2-7%).
(§1) Human NB cell lines were provided by Dr. Robert Seeger (LAN-1; University of California, Los Angeles, Calif.), Dr. Nai-Kong Cheung (NMB-7; Memorial Sloan-Kettering Cancer Center, NY), and the American Type Culture Collection (SK-N-SH; ATCC, Manassas, Va.). Cells were maintained in RPMI 1640 (Biosource, Rockeville, Md.) containing 10% heat-inactivated fetal bovine serum (FBS) (Invitrogen, Carlsbad, Calif.), penicillin (100 IU/ml) and streptomycin (100 μg/ml). If cells were treated with exogenous Spd, 1 mM of aminoguanidine was included as an inhibitor of serum polyamine oxidation. […] For growth and proliferation inhibition, polyamine pool, and cell cycle studies, 10 μM Spd was added together with inhibitors, and cells were assayed on days 2 and/or 3.

Another assay has as its target T1, AdoMetDC (Homo sapiens, UniProt P17707).
T1 construct: processed AdoMetDC α chain (31 kDa) proteins were detected at the expected size in LAN-1 and NMB-7 cells; endogenous in cells; host or cells: LAN-1 and NMB-7 human neuroblastoma cells (LAN-1 only for the Western blot of treated cells)
T1 sequence (P17707 68-334 limits assumed): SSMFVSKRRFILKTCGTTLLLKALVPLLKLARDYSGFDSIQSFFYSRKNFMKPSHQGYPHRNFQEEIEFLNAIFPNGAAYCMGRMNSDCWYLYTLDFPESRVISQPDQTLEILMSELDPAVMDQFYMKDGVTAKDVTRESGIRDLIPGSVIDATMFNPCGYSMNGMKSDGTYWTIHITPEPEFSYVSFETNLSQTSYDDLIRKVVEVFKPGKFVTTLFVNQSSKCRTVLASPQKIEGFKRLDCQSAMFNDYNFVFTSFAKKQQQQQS
T1 sequence (P17707 1-67 limits assumed): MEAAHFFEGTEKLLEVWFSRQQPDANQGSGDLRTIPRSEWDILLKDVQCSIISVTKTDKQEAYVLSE
The experiment in a line: AdoMetDC enzyme activity in lysates of inhibitor-treated NB cells. The class given is cell-based. The note with it: for Specific enzyme activity ADOMETDC: DFMO = 5 mM, SAM486A = 10 μM, mean ± SD. As for the experimental part: Under identical experimental conditions, AdoMetDC activity was determined.
as §1
ODC and AdoMetDC enzyme activities were determined using a standard assay known in the art. In brief, NB cells were washed twice with ice-cold PBS and harvested in 50 mM sodium phosphate buffer (pH 7.2), 0.1 mM EDTA, 2.5 mM DTT, supplemented with 1× protease inhibitor cocktail (Roche Molecular Biochemicals, Indianapolis, Ind.). For the measurement of AdoMetDC activity, cells were harvested in the above buffer supplemented with 2.5 mM Put. Cells were lysed by three freeze/thaw cycles and cell lysates were prepared by centrifugation for 20 minutes at 14,000 rpm and 4° C. ODC activity was measured in a reaction mixture that contained 20 μM L-[1-^14C]ornithine (47.70 mCi/mmol; NEN Life Science Products, Boston, Mass.). AdoMetDC activity was assayed in a reaction mixture that contained 8.2 μM S-adenosyl-L-[carboxy-^14C]methionine (58.0-61.0 mCi/mmol; Amersham Biosciences, Piscataway, N.J.) and 140.1 μM cold S-adenosylmethionine. […] Untreated or SAM486A-treated LAN-1 extracts were assayed for AdoMetDC activity after multiple rounds of sequential dilution with harvest buffer followed by concentration of the extract (Centricon YM-10, Millipore Corporation, Bedford, Mass.) to remove the inhibitor.

Take `NCCC[C@](N)(C(=O)O)C(F)F` [DFMO, α-difluoromethylornithine]: the MYCN protein result with MYCN was “strong downregulation”. The “Cell cycle G1” value in the assay on NMB-7 cells (NMB-7, day 2) was found to be 60.3 ± 3.9 % TOTAL CELLS; in the assay with NMB-7 cells (NMB-7, day 3), 58.8 ± 2.6 % TOTAL CELLS. In addition, the “Cell cycle G2/M” value is given as 8.4 ± 2.9 % TOTAL CELLS with NMB-7 cells (NMB-7, day 2) and 10.2 ± 3.9 % TOTAL CELLS in the assay on NMB-7 cells (NMB-7, day 3). Moreover, the “Cell cycle S” value in the assay on NMB-7 cells (NMB-7, day 2) was 31.3 ± 6.5 % TOTAL CELLS; in the assay with NMB-7 cells (NMB-7, day 3), 31.0 ± 6.3 % TOTAL CELLS. Further, the “Specific enzyme activity ADOMETDC” value on AdoMetDC (LAN-1, 2 days after treatment) is reported as 689 ± 94 % OF CONTROL; at AdoMetDC (NMB-7, 2 days after treatment) it was 582 ± 67 % OF CONTROL.
As to `N=C(N)c1cccc2c1CC/C2=N\N=C(N)N` [SAM486A, 4-amidinoindan-1-one 2′-amidinohydrazone], the MYCN protein entry in the assay on MYCN was “almost no effect”. Besides, the “Cell cycle G1” value is 54.1 ± 4.3 % TOTAL CELLS in the assay with NMB-7 cells (NMB-7, day 2) and 56.4 ± 6.5 % TOTAL CELLS in the assay on NMB-7 cells (NMB-7, day 3). Also, the “Cell cycle G2/M” value is 9.3 ± 3.2 % TOTAL CELLS in the assay on NMB-7 cells (NMB-7, day 2) and 8.5 ± 1.4 % TOTAL CELLS in the assay on NMB-7 cells (NMB-7, day 3). Moreover, the “Cell cycle S” value with NMB-7 cells (NMB-7, day 2) was found to be 36.6 ± 6.0 % TOTAL CELLS; in the assay with NMB-7 cells (NMB-7, day 3), 35.2 ± 7.0 % TOTAL CELLS. The “Specific enzyme activity ADOMETDC” value on AdoMetDC (LAN-1, 2 days after treatment) was determined as 169 ± 9 % OF CONTROL; on AdoMetDC (NMB-7, 2 days after treatment), 200 ± 16 % OF CONTROL. Also, the “increase of measured AdoMetDC activity after sequential dilution and concentration of lysates to remove residual inhibitor” value on AdoMetDC (SAM486A-treated LAN-1 extracts, data not shown) is on record as around 100 fold.
